For six compounds, Relative activity results are on record in ChEMBL document CHEMBL1121386, “Synthesis and analgesic activity of some 14 beta-substituted analogues of morphine” (1980).

Molecules are shown by their SMILES.

The experiment is filed under the species Cavia porcellus. Description: Tested for analgesic activity in the guinea pig ileum preparation relative to normorphine (1). The format is functional.
Compound `CN1CCC23c4c5ccc(O)c4O[C@H]2C(=O)C=C[C@@]3(Cl)C1C5` (stereo partly specified) gave a Relative activity of 0.5. The compound `CN1CCC23c4c5ccc(O)c4O[C@H]2C(=O)C=C[C@@]3([N+](=O)[O-])C1C5` (stereo partly specified) returned a Relative activity of 0.006. Compound `CN1CCC23c4c5ccc(O)c4O[C@H]2C(=O)C=C[C@@]3(Br)C1C5` (stereo partly specified) yielded a Relative activity of 0.4. As for `CN1CCC23c4c5ccc(O)c4O[C@H]2[C@@H](O)C=C[C@@]3(O)C1C5` (stereo partly specified), the figure is 0.8; as for `CC(=O)N[C@@]12C=C[C@H](OC(C)=O)[C@@H]3Oc4c(O)ccc5c4C31CCN(C)C2C5` (stereo partly specified), 0.6; as for `CN1CCC23c4c5ccc(O)c4O[C@H]2[C@@H](O)C=C[C@@]3(S)C1C5` (stereo partly specified), 0.4.
